The supplement of paper PMC10307832

Assays:
Assay in all cases: relative viability (nuclei count vs DMSO), 5 days (fraction); higher = more cells survive
Avagacestat + Alpelisib = compound: NC(=O)[C@@H](CCC(F)(F)F)N(Cc1ccc(-c2ncon2)cc1F)S(=O)(=O)c1ccc(Cl)cc1 [Avagacestat] + Cc1nc(NC(=O)N2CCC[C@H]2C(N)=O)sc1-c1ccnc(C(C)(C)C(F)(F)F)c1 [Alpelisib] (partner 2 µM)
In short: (§1)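 Values are medians from duplicate plates. Each reflects relative viability, defined as the nuclei count of treated wells over that of vehicle wells. Lung cancer cell lines in 1536-well plates were pin-tool dosed one day after seeding with one drug alone or with a fixed anchor-drug dose plus five library-drug doses (not always all listed) in √10 steps, then fixed, stained and imaged at 4× after 5 days.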

Avagacestat + Linsitinib = compound: NC(=O)[C@@H](CCC(F)(F)F)N(Cc1ccc(-c2ncon2)cc1F)S(=O)(=O)c1ccc(Cl)cc1 [Avagacestat] + C[C@]1(O)C[C@@H](c2nc(-c3ccc4ccc(-c5ccccc5)nc4c3)c3c(N)nccn32)C1 [Linsitinib] (partner 1 µM)
In short: as §1

Avagacestat + Decitabine = compound: NC(=O)[C@@H](CCC(F)(F)F)N(Cc1ccc(-c2ncon2)cc1F)S(=O)(=O)c1ccc(Cl)cc1 [Avagacestat] + Nc1ncn([C@H]2C[C@H](O)[C@@H](CO)O2)c(=O)n1 [Decitabine] (partner 2 µM)
In short: as §1

Avagacestat + Pictilisib = compound: NC(=O)[C@@H](CCC(F)(F)F)N(Cc1ccc(-c2ncon2)cc1F)S(=O)(=O)c1ccc(Cl)cc1 [Avagacestat] + CS(=O)(=O)N1CCN(Cc2cc3nc(-c4cccc5[nH]ncc45)nc(N4CCOCC4)c3s2)CC1 [Pictilisib] (partner 1 µM)
In short: as §1

Cell Line | relative viability (Avagacestat + Alpelisib; first compound 0.08 µM) | relative viability (Avagacestat + Alpelisib; first compound 0.253 µM) | relative viability (Avagacestat + Alpelisib; first compound 0.8 µM) | relative viability (Avagacestat + Alpelisib; first compound 2.53 µM) | relative viability (Avagacestat + Alpelisib; first compound 8 µM) | relative viability (Avagacestat + Linsitinib; first compound 0.08 µM) | relative viability (Avagacestat + Linsitinib; first compound 0.253 µM) | relative viability (Avagacestat + Linsitinib; first compound 0.8 µM) | relative viability (Avagacestat + Linsitinib; first compound 2.53 µM) | relative viability (Avagacestat + Linsitinib; first compound 8 µM) | relative viability (Avagacestat + Decitabine; first compound 0.08 µM) | relative viability (Avagacestat + Decitabine; first compound 0.253 µM) | relative viability (Avagacestat + Decitabine; first compound 0.8 µM) | relative viability (Avagacestat + Decitabine; first compound 2.53 µM) | relative viability (Avagacestat + Decitabine; first compound 8 µM) | relative viability (Avagacestat + Pictilisib; first compound 0.08 µM) | relative viability (Avagacestat + Pictilisib; first compound 0.253 µM) | relative viability (Avagacestat + Pictilisib; first compound 0.8 µM) | relative viability (Avagacestat + Pictilisib; first compound 2.53 µM) | relative viability (Avagacestat + Pictilisib; first compound 8 µM)
NCI-H2009 | 1.28 | 1.29 | 1.16 | 1.18 | 1.08 | 1.26 | 1.34 | 1.2 | 1.22 | 1.1 | 0.412 | 0.384 | 0.386 | 0.332 | 0.395 | 0.986 | 0.946 | 0.983 | 0.808 | 0.778
NCI-H460 | 0.724 | 0.538 | 0.688 | 0.472 | 0.357 | 1.01 | 0.896 | 1.35 | 0.673 | 0.588 | 0.628 | 0.703 | 0.481 | 0.417 | 0.419 | 0.425 | 0.361 | 0.454 | 0.441 | 0.365
201T | 1.04 | 1.02 | 1.04 | 0.892 | 0.887 | 1.02 | 1.07 | 1.13 | 0.985 | 0.99 | 0.861 | 0.885 | 0.888 | 0.801 | 0.767 | 0.737 | 0.7 | 0.664 | 0.691 | 0.661
NCI-H358 | 0.938 | 0.908 | 0.872 | 0.711 | 0.777 | 0.774 | 0.822 | 0.839 | 0.687 | 0.724 | 0.251 | 0.264 | 0.19 | 0.212 | 0.219 | 0.356 | 0.337 | 0.493 | 0.349 | 0.385
NCI-H1651 | 1.05 | 1.3 | 1.15 | 0.978 | 0.909 | 1.37 | 1.17 | 1.05 | 0.854 | 0.828 | 0.636 | 0.665 | 0.734 | 0.611 | 0.607 | 0.566 | 0.576 | 0.711 | 0.585 | 0.368
LU99A | 0.659 | 0.498 | 0.529 | 0.51 | 0.483 | 0.598 | 0.561 | 0.63 | 0.563 | 0.644 | 0.835 | 0.98 | 0.964 | 0.772 | 0.816 | 0.282 | 0.325 | 0.341 | 0.277 | 0.307
LC-2-ad | 0.798 | 0.707 | 0.769 | 0.81 | 0.788 | 0.819 | 0.896 | 0.87 | 0.778 | 0.807 | 0.837 | 0.839 | 0.867 | 0.833 | 0.776 | 0.569 | 0.41 | 0.518 | 0.382 | 0.269
NCI-H1975 | 0.686 | 0.62 | 0.719 | 0.585 | 0.665 | 1.14 | 1.19 | 1.04 | 0.943 | 0.994 | 0.371 | 0.355 | 0.425 | 0.341 | 0.412 | 0.338 | 0.289 | 0.325 | 0.258 | 0.298
NCI-H322M | 0.762 | 0.787 | 0.904 | 0.633 | 0.54 | 0.826 | 0.892 | 1.03 | 0.823 | 0.681 | 0.736 | 0.626 | 0.729 | 0.629 | 0.611 | 0.503 | 0.487 | 0.478 | 0.441 | 0.415
NCI-H1666 | 1.26 | 0.982 | 1.32 | 1.03 | 1.1 | 1.03 | 0.861 | 1.02 | 0.865 | 1.02 | 0.892 | 0.858 | 0.953 | 0.81 | 0.882 | 0.416 | 0.445 | 0.499 | 0.48 | 0.49
NCI-H1355 | 0.924 | 0.994 | 0.74 | 0.759 | 0.787 | 0.95 | 0.859 | 0.812 | 0.687 | 0.651 | 0.357 | 0.329 | 0.371 | 0.344 | 0.309 | 0.442 | 0.423 | 0.421 | 0.385 | 0.418
PC-3 [JPC-3] | 1.04 | 1.18 | 1.12 | 1.12 | 1.03 | 1.01 | 1.02 | 0.976 | 1.04 | 0.967 | 0.857 | 0.808 | 0.824 | 0.789 | 0.87 | 0.806 | 0.903 | 0.794 | 0.772 | 0.72
NCI-H650 | 1.12 | 1.57 | 1.21 | 1.32 | 1.19 | 1.22 | 0.927 | 1.08 | 0.912 | 0.848 | 0.33 | 0.324 | 0.317 | 0.328 | 0.367 | 0.768 | 0.989 | 1.03 | 1.07 | 0.82
UMC-11 | 1.22 | 1.19 | 1.21 | 0.885 | 0.933 | 1.2 | 1.12 | 1.18 | 1.04 | 0.933 | 0.657 | 0.57 | 0.585 | 0.602 | 0.597 | 0.966 | 0.747 | 0.964 | 0.844 | 0.867
NCI-H520 | 1.16 | 0.868 | 0.74 | 0.7 | 0.715 | 1.15 | 1.09 | 0.933 | 0.864 | 0.889 | 0.606 | 0.501 | 0.467 | 0.453 | 0.475 | 0.302 | 0.291 | 0.274 | 0.229 | 0.205
NCI-H727 | 0.749 | 0.682 | 0.695 | 0.467 | 0.558 | 0.252 | 0.342 | 0.35 | 0.278 | 0.26 | 0.889 | 0.815 | 1.06 | 0.836 | 0.875 | 0.537 | 0.356 | 0.512 | 0.434 | 0.603
